Measured values reported in ChEMBL document CHEMBL1201862, “PubChem BioAssay data set” (2004).
Calls of active or inactive are those of the source.

What was measured:
[1] = biological target: T1, Cytochrome P450 1A2 (Homo sapiens, UniProt P05177);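 further: PubChem cytochrome P450 panel assay, CYP1A2 panel member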
T1 sequence (P05177 whole entry): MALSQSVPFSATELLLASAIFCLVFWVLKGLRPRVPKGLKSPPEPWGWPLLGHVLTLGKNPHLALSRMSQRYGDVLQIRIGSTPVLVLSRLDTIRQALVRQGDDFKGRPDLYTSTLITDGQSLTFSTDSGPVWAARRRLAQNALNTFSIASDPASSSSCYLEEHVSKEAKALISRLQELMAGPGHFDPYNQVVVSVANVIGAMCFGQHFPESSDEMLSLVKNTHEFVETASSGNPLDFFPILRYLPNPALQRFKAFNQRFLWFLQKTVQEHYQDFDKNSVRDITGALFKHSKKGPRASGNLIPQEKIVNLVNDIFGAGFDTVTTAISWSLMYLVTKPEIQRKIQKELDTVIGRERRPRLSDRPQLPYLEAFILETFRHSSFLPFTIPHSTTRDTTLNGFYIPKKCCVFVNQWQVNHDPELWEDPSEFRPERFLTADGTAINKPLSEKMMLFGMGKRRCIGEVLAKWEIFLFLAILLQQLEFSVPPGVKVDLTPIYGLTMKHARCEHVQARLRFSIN

[2] = biological target: Cytochrome P450 3A4 (Homo sapiens, UniProt P08684);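 further: CYP3A4 tested as one member of a cytochrome P450 panel screen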
Sequence of Cytochrome P450 3A4 (P08684 whole entry, the tested form may be a part): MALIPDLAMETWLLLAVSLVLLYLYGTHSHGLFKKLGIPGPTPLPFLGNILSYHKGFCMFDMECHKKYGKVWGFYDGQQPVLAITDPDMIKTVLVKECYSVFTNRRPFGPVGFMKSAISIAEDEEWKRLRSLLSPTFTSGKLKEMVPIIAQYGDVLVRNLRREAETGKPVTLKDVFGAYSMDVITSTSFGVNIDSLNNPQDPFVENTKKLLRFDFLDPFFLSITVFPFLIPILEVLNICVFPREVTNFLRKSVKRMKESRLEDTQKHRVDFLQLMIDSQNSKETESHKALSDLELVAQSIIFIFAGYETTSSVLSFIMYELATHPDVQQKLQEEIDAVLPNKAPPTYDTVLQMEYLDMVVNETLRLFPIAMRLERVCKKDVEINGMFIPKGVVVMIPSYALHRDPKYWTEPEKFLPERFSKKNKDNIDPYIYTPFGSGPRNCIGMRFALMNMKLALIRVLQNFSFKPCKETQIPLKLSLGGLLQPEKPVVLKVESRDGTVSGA

[3] = biological target: T2, Carboxy-terminal domain RNA polymerase II polypeptide A small phosphatase 1 (Homo sapiens, UniProt Q9GZU7); experiment: inhibitors of CTDSP1, concentration-response testing, biochemical assay, absorbance-based, actives from ultra-high-throughput screening (AID 540297); assay type: functional
T2 sequence (Q9GZU7 whole entry): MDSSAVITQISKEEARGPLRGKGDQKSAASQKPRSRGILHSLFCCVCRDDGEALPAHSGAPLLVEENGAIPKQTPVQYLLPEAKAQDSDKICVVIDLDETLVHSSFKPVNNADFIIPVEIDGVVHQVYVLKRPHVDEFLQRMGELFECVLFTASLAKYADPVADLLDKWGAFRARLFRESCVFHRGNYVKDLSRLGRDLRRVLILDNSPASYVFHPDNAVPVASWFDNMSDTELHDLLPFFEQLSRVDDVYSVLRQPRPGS

[4] = cells; assay type: functional
[5] = inhibitors of SNCA 5'UTR-driven reporter translation, confirmation, H4 neuroglioma cells, luminescence (AID 1988); assay type: functional, cell-based
[6] = Vero E6 cell cytotoxicity, dose response, cytotoxicity control for non-replicating M. tuberculosis project, secondary assay (AID 492998); assay type: functional, VeroE6; conditions: Vero C1008
[7] = inhibitors of firefly luciferase expression or activity, dose response, H4 neuroglioma cells, luminescence (AID 1990); assay type: functional, cell-based
[8] = Luminescence Cell-Based Dose Response HTS to Identify Inhibitors of 5'UTR Stem-Loop Driven Prion Protein mRNA Translation in H4 Neuroglioblastoma Cells. [Related pubchem assays: 1827 (Project Summary), 1813 (Primary HTS)]; assay type: functional
[9] = biological target: Dual specificity tyrosine-phosphorylation-regulated kinase 1A (Rattus norvegicus, UniProt Q63470); assay type: biochemical, Homo sapiens
[10] = biological target: Nonstructural protein 1 (Influenza A virus, UniProt Q194T2); assay type: functional, Influenza A virus (A/California/07/2009(H1N1))
Sequence of Nonstructural protein 1 (Q194T2 whole entry): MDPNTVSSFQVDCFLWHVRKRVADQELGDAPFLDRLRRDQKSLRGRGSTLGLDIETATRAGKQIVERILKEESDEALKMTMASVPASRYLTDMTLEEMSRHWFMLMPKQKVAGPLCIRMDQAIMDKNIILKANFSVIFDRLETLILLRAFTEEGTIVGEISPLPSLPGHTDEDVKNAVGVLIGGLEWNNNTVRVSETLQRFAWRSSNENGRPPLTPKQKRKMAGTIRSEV

[11] = test system: HEK293; experiment: inhibitors of LMP1-driven NF-kB reporter, dose response, cell-based, HEK293, luciferase, cherry-pick (AID 588343); assay type: functional; conditions: Homo sapiens
[12] = biological target: T3, Heat shock factor protein 1 (Mus musculus, UniProt P38532); experiment: inhibition of MG132-induced HSE-luciferase signal, confirmation, cell-based, NIH3T3, luminescence, dose retest (AID 2382); assay type: functional;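 further: NIH3T3 fibroblasts with HSF1-driven luciferase reporter stressed by proteasome inhibitor MG132; luminescence from HSF1-driven luciferase expression after 8 hours of MG132 stress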
T3 sequence (P38532 whole entry): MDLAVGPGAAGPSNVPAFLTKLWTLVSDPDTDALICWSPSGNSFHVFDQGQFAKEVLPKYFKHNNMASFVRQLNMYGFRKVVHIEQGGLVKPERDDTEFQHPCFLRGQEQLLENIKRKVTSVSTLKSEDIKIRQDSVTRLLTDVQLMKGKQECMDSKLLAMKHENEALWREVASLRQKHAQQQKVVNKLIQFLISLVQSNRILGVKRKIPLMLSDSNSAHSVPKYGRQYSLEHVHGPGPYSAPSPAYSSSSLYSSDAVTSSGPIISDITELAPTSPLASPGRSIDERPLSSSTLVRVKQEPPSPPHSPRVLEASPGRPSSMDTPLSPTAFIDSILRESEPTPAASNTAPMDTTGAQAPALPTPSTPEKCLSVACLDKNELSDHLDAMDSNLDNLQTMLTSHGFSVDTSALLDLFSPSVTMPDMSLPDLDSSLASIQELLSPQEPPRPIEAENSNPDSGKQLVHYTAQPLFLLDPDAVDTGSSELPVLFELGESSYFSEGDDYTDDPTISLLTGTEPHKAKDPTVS

[13] = biological target: T4, Short transient receptor potential channel 4 (Mus musculus, UniProt Q9QUQ5); experiment: mouse TRPC4 channel activators, dose response, cell-based, HEK293 TRPC4/mu-opioid, Fluo-4 calcium (AID 434937); assay type: functional
T4 sequence (Q9QUQ5 whole entry): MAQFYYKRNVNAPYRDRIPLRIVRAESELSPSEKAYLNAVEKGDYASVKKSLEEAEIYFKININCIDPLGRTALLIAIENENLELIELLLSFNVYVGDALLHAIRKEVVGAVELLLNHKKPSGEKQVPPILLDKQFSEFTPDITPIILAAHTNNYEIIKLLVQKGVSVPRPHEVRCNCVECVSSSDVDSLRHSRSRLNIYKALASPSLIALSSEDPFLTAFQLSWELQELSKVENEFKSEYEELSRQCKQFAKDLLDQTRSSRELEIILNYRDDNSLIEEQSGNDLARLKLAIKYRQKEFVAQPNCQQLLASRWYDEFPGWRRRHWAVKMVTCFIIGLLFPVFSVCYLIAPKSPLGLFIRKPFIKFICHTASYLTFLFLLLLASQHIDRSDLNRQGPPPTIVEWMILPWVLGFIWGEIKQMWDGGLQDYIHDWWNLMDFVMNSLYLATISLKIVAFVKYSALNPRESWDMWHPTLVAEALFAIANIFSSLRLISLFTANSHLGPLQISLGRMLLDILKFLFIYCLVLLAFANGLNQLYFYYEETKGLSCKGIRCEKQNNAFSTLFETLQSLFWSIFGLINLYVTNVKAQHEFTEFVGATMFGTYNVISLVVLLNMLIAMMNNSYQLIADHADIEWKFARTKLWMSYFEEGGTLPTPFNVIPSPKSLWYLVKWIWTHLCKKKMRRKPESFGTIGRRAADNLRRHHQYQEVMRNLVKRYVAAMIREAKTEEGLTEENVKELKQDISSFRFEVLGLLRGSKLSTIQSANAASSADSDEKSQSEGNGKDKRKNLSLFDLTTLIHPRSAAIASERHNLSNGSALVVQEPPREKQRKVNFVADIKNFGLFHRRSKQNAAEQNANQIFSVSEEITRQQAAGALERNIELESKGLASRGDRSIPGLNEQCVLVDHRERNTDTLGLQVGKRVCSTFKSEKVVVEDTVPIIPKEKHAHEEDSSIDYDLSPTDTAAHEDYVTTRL

[14] = biological target: T5, Microphthalmia-associated transcription factor (Homo sapiens, UniProt O75030); experiment: TRPM1 promoter luciferase signal decrease, dose response, MITF inhibitor project, cell-based, SK-MEL-5, cherry-picked, set 3 (AID 493073); assay type: functional
T5 sequence (O75030 whole entry): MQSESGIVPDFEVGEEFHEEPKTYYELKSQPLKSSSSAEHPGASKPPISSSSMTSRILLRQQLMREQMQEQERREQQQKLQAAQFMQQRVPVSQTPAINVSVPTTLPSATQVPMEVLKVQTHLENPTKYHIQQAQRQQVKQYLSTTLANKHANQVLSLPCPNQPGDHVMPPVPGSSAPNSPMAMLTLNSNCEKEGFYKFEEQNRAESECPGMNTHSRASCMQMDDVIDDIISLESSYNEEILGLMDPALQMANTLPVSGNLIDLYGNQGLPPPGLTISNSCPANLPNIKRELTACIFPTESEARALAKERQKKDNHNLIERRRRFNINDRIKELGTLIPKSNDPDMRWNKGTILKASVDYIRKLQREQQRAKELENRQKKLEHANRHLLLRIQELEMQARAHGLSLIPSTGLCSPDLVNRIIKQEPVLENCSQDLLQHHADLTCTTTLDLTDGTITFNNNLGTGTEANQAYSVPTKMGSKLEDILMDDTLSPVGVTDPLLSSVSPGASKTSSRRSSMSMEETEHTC

[15] = C. albicans growth with fluconazole, confirmation, fluorescence, retest (AID 2467); assay type: functional, cell-based
[16] = NIH-3T3 fibroblast cytotoxicity, dose response, cytotoxicity control, cell-based, fluorescence, Alamar Blue, secondary assay (AID 2327); assay type: functional;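 further: NIH-3T3 mouse fibroblasts cultured with fluconazole at 8 µg/mL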
[17] = biological target: T6, High affinity choline transporter 1 (Homo sapiens, UniProt Q9GZV3); experiment: CHT inhibitors, dose response, cell-based, 5-point CRC, membrane potential dye (AID 504840); assay type: functional
T6 sequence (Q9GZV3 whole entry): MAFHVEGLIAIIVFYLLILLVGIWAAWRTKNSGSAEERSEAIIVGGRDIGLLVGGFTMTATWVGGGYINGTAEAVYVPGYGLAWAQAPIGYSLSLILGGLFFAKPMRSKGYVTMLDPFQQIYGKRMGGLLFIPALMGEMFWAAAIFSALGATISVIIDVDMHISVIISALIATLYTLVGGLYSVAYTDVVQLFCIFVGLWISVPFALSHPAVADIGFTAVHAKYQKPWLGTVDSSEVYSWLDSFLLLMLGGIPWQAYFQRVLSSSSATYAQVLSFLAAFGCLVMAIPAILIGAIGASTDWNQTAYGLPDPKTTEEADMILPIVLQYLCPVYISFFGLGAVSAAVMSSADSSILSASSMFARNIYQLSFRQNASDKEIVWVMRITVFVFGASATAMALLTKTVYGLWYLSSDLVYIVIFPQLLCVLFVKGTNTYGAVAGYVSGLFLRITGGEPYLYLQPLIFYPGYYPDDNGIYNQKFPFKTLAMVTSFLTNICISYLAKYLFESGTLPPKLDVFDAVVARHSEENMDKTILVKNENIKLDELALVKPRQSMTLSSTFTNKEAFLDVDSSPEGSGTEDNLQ

[18] = biological target: T4, Short transient receptor potential channel 4; experiment: mouse TRPC4 channel inhibitors, dose response, cell-based, HEK293 TRPC4/mu-opioid, Fluo-4 calcium (AID 434942); assay type: functional;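 further: potency of inhibitors blocking the TRPC4 calcium response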
[19] = A cytotoxicity screen of small molecule inhibitors of the PhoP region in Salmonella typhi identified in the primary screen. [Related pubchem assays: 1850, 1864, 1985 ]; assay type: functional

## CC(=O)OCC(=O)[C@@]1(OC(C)=O)[C@H](C)C[C@H]2[C@@H]3C[C@H](F)C4=CC(=O)C=C[C@@]4(C)[C@]3(F)[C@H](O)C[C@@]21C
[1]
  AC50: 12.6 µM (inconclusive)
[2]
  AC50: inconclusive

## CCc1ccccc1NC(=O)COc1ccc2oc(-c3ccc(OC)cc3)cc(=O)c2c1
[3]
  IC50: 8.65 µM (active)

## O=C(c1cc(C(F)(F)F)cc(C(F)(F)F)c1)N1CCC2(CC1)CCN(c1ccncc1)CC2
[1]
  AC50: 25.1 µM (inconclusive)
[2]
  AC50: inconclusive

## O=C(N/N=C1\CCCc2c1[nH]c1ccc(Cl)cc21)c1ccncc1
[4]
  IC50: 0.6 µM (active)
[5]
  EC50: 10.3 µM (active)
[6]
  CC50: 9.43 µM (active)
[7]
  EC50: 11.1 µM (active)
[8]
  EC50: 25.8 µM (active)

## C(=N\Nc1[nH]cnc2ncnc1-2)/c1cccs1
[9]
  AC50: 5.83 µM (active)

## CSc1nc2cc(S(=O)(=O)N3CCCCC3)ccc2s1
[2]
  AC50: inconclusive

## CCOC(=O)C1=C(C)N=C2c3ccccc3C(=O)C2C1c1ccc(C)cc1 (centres undefined)
[2]
  AC50: inconclusive
[10]
  IC50: > 100 µM (active)

## CC(C)(C)OC(=O)N1Cc2ccccc2C[C@H]1C(=O)NCC(=O)Nc1ccc2c(c1)OCCO2
[11]
  AC50: 1.4 µM (active)
[12]
  EC50: 0.755 µM (active)

## O=C(c1ccccc1)c1nc[nH]c1C(=O)Nc1ccccc1
[4]
  IC50: 12.5 µM (active)
[6]
  CC50: > 20 µM (active)

## Cc1ccc(C(=O)OCC(=O)c2ccc(CC(=O)N3CCOCC3)s2)c(C)c1
[3]
  IC50: 4.73 µM (active)

## CC(C)OC(=O)C(C)(C)Oc1ccc(C(=O)c2ccc(Cl)cc2)cc1 [FENOFIBRATE]
[2]
  AC50: inconclusive

## O=C(CSc1nccc(O)n1)N1N=C2/C(=C/c3ccco3)CCCC2C1c1ccco1 (centres undefined)
[3]
  IC50: 13 µM (active)

## COc1ccc(CCN(C)C(=O)C2CCCN(C3CCN(Cc4ccccc4)CC3)C2)cc1OC (centres undefined)
[13]
  EC50: 1.19 µM (active)

## COc1cccc(CN2CCNC(=O)C2CC(=O)N(C)CCc2ccccn2)c1OC (centres undefined)
[13]
  EC50: 6.68 µM (active)

## O=C(O)/C=C/c1cccc(NC(=O)Nc2ccc([N+](=O)[O-])cc2)c1
[9]
  AC50: 5.42 µM (active)

## Nc1ncnc(Sc2ncccn2)c1[N+](=O)[O-]
[14]
  AC50: 11.7 µM (active)
[15]
  EC50: 1 µM (active)
[16]
  EC50: 7.47 µM (inconclusive)

## COc1ccc(S(=O)(=O)NCCc2csc(-c3cccnc3)n2)cc1
[11]
  AC50: 144 µM (active)

## N#Cc1ccccc1S(=O)(=O)N1CCN(C(=O)C2COc3ccccc3O2)CC1 (centres undefined)
[3]
  IC50: 3.54 µM (active)

## CC(/C=N/NC(=O)c1cc(-c2ccncc2)nc2ccccc12)=C\c1ccco1
[14]
  AC50: 2.4 µM (active)
[17]
  IC50: 9.98 µM (active)

## CCc1nccc2c1[nH]c1ccccc12
[18]
  EC50: 2.99 µM (active)
[9]
  AC50: 5.67 µM (active)
[19]
  EC50: > 50 µM (active)
